Data: patent US6521620B1, “Bicyclic compounds capable of inhibiting tyrosine kinases of the epidermal growth factor receptor family” (Warner-Lambert Company, priority 1994, dated 2003)
Structures can show the parent of a compound that is named as a salt. Where two headings read alike, the source gives them in different places.

Target: T1, Human EGF receptor tyrosine kinase (Homo sapiens, UniProt P00533)
T1 construct: isolated from A431 human epidermoid carcinoma cells which overexpress EGF receptor; endogenous in cells; host or cells: A431 human epidermoid carcinoma cells; purified from the lysate on wheat germ agglutinin sepharose
Experiment: EGF receptor tyrosine kinase inhibition (phosphorylation of PLC-gamma 1 derived peptide)
Format: biochemical
Procedure: Purification of Epidermal Growth Factor Receptor Tyrosine Kinase—Human EGF receptor tyrosine kinase was isolated from A431 human epidermoid carcinoma cells which overexpress EGF receptor by the following methods. Cells were grown in roller bottles in 50% Delbuco's Modified Eagle and 50% HAM F-12 nutrient media (Gibco) containing 10% fetal calf serum. Approximately 10^9 cells were lysed in two volumes of buffer containing 20 mM 2-(4N-[2-hydroxyethyl]piperazin-1-yl)ethanesulfonic acid (hepes), pH 7.4, 5 mM ethylene glycol bis(2-aminoethyl ether) N,N,N′,N′-tetraacetic acid, 1% Triton X-100, 10% glycerol, 0.1 mM sodium orthovanadate, 5 mM sodium fluoride, 4 mM pyrophosphate, 4 mM benzamide, 1 mM dithiothreitol, 80 μg/mL aprotinin, 40 μg/mL leupeptin and 1 mM phenylmethylsulfonyl fluoride. After centrifugation at 25,000×g for 10 minutes, the supernatant was equilibrated for 2 h at 4° C. with 10 mL of wheat germ agglutinin sepharose that was previously equilibrated with 50 mM Hepes, […], 0.1% Triton X-100 and 150 mM NaCl, pH 7.5, (equilibration buffer). Contaminating proteins were washed from the resin with 1 M NaCl in equilibration buffer, and the enzyme was eluted with 0.5 M N-acetyl-1-D-glucosamine in equilibration buffer, followed by 1 mM urea. The enzyme was eluted with 0.1 mg/ml EGF.
The reaction was terminated by the addition of 2 mL of […] phosphoric acid and passed through a 2.5 cm phosphocellulose filter disc to bind the peptide. The filter was washed five times with 75 mM phosphoric acid and placed in a vial along with 5 mL of scintillation fluid (Ready gel Beckman).

[1] = Table 1, values printed in μM, read-out: EGF Receptor Tyrosine Kinase Inhibition IC50
[2] = Table 1, values in nM, read-out: EGF Receptor Tyrosine Kinase Inhibition IC50
[3] = Table 1, values in pM, read-out: EGF Receptor Tyrosine Kinase Inhibition IC50

T1 sequence (P00533 25-1210): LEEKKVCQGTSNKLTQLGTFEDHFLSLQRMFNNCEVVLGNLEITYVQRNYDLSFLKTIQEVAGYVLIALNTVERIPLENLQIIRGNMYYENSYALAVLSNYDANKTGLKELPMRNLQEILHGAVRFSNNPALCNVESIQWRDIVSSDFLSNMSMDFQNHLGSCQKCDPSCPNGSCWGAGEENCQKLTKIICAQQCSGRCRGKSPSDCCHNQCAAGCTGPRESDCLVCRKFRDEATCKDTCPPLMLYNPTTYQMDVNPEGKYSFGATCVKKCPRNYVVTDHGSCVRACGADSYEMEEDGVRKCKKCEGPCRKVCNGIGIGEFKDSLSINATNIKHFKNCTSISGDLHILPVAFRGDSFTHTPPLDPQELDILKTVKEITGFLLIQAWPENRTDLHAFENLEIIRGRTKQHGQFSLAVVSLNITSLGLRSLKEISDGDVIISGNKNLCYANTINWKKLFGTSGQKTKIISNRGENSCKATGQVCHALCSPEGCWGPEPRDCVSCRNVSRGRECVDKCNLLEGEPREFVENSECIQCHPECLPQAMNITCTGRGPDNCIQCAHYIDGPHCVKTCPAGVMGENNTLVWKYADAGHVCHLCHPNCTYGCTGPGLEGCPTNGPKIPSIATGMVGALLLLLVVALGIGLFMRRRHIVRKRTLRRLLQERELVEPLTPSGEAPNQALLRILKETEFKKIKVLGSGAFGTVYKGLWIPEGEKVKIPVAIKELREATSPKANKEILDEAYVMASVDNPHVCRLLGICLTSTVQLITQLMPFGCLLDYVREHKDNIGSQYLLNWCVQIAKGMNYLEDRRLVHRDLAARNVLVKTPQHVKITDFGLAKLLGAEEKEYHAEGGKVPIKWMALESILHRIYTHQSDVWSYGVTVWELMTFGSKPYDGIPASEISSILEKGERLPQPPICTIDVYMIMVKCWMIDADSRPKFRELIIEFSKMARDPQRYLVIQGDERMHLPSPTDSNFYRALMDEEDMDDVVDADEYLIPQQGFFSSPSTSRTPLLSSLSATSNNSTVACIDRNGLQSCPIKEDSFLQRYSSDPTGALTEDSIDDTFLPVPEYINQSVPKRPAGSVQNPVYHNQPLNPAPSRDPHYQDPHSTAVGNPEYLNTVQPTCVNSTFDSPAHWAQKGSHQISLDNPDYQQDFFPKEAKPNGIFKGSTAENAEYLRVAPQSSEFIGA

SMILES	IC50 [1] [nM]	IC50 [2] [nM]	other results
c1ccc(Nc2ncnc3cccnc23)cc1 [Example 1, 4-Anilinopyrido[3,2-d]pyrimidine Mesylate]	8000		
c1ccc(CNc2ncnc3cccnc23)cc1 [Example 2, 4-Benzylaminopyrido[3,2-d]pyrimidine]			IC50: 3600 nM
Brc1cccc(Nc2ncnc3cccnc23)c1 [Example 3, 4-(3-Bromoanilino)pyrido[3,2-d]pyrimidine]	1100		
Clc1ccc2ncnc(Nc3cccc(Br)c3)c2n1 [Example 5, 4-(3-Bromoanilino)-6-chloropyrido[3,2-d]pyrimidine]	1900		
COc1ccc2ncnc(Nc3cccc(Br)c3)c2n1 [Example 9, 4-(3-Bromoanilino)-6-methoxypyrido[3,2-d]pyrimidine]		405	
c1ccc(Nc2ncnc3ccncc23)cc1 [Example 10, 4-Anilinopyrido[4,3-d]pyrimidine]	6100		
Brc1cccc(Nc2ncnc3ccncc23)c1 [Example 11, 4-(3-Bromoanilino)pyrido[4,3-d]pyrimidine]		194	
Fc1cc2ncnc(Nc3cccc(Br)c3)c2cn1 [Example 12, 4-(3-Bromoanilino)-7-fluoropyrido[4,3-d]pyrimidine]		13	
Nc1cc2ncnc(Nc3ccccc3)c2cn1 [Example 13, 7-Amino-4-anilinopyrido[4,3-d]pyrimidine]		250	
Nc1cc2ncnc(Nc3cccc(O)c3)c2cn1 [Example 14, 7-Amino-4-(3-hydroxyanilino)pyrido[4,3-d]pyrimidine]		70	
COc1cccc(Nc2ncnc3cc(N)ncc23)c1 [Example 15, 7-Amino-4-(3-methoxyanilino)pyrido[4,3-d]pyrimidine]		134	
COc1ccccc1Nc1ncnc2cc(N)ncc12 [Example 16, 7-Amino-4-(2-methoxyanilino)pyrido[4,3-d]pyrimidine]	3700		
Nc1cccc(Nc2ncnc3cc(N)ncc23)c1 [Example 17, 7-Amino-4-(3-aminoanilino)pyrido[4 3-d]pyrimidine]	1550		
Nc1ccc(Nc2ncnc3cc(N)ncc23)cc1 [Example 18, 7-Amino-4-(4-aminoanilino)pyrido[4,3-d]pyrimidine]		173	
CN(C)c1cccc(Nc2ncnc3cc(N)ncc23)c1 [Example 19, 7-Amino-4-(3-dimethylaminoanilino)pyrido [4,3-d]pyrimidine]	1800		
CN(C)c1ccc(Nc2ncnc3cc(N)ncc23)cc1 [Example 20, 7-Amino-4-(4-dimethylaminoanilino)pyrido[4,3-d]pyrimidine]	4900		
Nc1cc2ncnc(Nc3ccccc3[N+](=O)[O-])c2cn1 [Example 21, 7-Amino-4-(2-nitroanilino)pyrido[4,3-d]pyrimidine]	1250		
Nc1cc2ncnc(Nc3cccc(F)c3)c2cn1 [Example 23, 7-Amino-4-(3-fluoroanilino)pyrido[4,3-d]pyrimidine]		840	
Nc1cc2ncnc(Nc3cccc(Cl)c3)c2cn1 [Example 24, 7-Amino-4-(3-chloroanilino)pyrido[4,3-d]pyrimidine]		123	
Nc1cc2ncnc(Nc3ccc(Cl)c(Cl)c3)c2cn1 [Example 25, 7-Amino-4-(3,4-dichloroanilino)pyrido[4,3-d]pyrimidine]		377	
Nc1cc2ncnc(Nc3ccccc3Br)c2cn1 [Example 26, 7-Amino-4-(2-bromoanilino)pyrido[4,3-d]pyrimidine]		241	
Nc1cc2ncnc(Nc3ccc(Br)cc3)c2cn1 [Example 28, 7-Amino-4-(4-bromoanilino)pyrido[4,3-d]pyrimidine]		94	
Nc1cc2ncnc(Nc3cccc(I)c3)c2cn1 [Example 29, 7-Amino-4-(3-iodoanilino)pyrido[4,3-d]pyrimidine]		262	
Nc1cc2ncnc(Nc3cccc(C(F)(F)F)c3)c2cn1 [Example 31, 7-Amino-4-(3-trifluoromnethylanilino)pyrido[4,3-d]pyrimidine]		15	
Nc1cc2ncnc(Nc3ccc(C(F)(F)F)cc3)c2cn1 [Example 32, 7-Amino-4-(4-trifluoromethylanilino)3pyrido[4,3-d]pyrimidine]	4700		
CNc1cc2ncnc(Nc3cccc(Br)c3)c2cn1 [Example 33, 4-(3-Bromoanilino)-7-methylaminopyrido[4 3-d]pyrimidine]			IC50 [3]: 0.13 nM
CN(C)c1cc2ncnc(Nc3cccc(Br)c3)c2cn1 [Example 34, 4-(3-Bromoanilino)-7-dimethylaminpyrido[4,3-d]pyrimidine]			IC50 [3]: 0.091 nM
CNc1cc2ncnc(N(C)c3cccc(Br)c3)c2cn1 [Example 35, 4-[N-(3-Bromophenyl)-N-methylaminol-7-methylaminopyrido 4,3-d]pyrimidine]		3.1	
CC(=O)Nc1cc2ncnc(Nc3cccc(Br)c3)c2cn1 [Example 36, 7-Acetylamino-4-(3-bromoanilino)pyrido[4 3-d]pyrimidine]		29	
COc1cc2ncnc(Nc3cccc(Br)c3)c2cn1 [Example 37, 4-(3-Bromoanilino)-7-methoxypyrido[4,3-d]pyrimidine]		39	

Continued, in another order:

IC50 [1] [nM]	IC50 [2] [nM]	SMILES	other results
	71	c1ccc(CNc2ncnc3ccncc23)cc1 [Example 38, 4-Benzylaminopyrido[4,3-d]pyrimidine]	
	226	Nc1cc2ncnc(NCc3ccccc3N)c2cn1 [Example 42, 7-Amino-4-(2-aminobenzylamino)pyrido[4,3-d]pyrimidine]	
10000		CN(C)c1cccc(CNc2ncnc3cc(N)ncc23)c1 [Example 43, 7-Amino-4-(3-dimethylaminobenzylamino)pyrido[4,3-d]-pyrimidine]	
10000		Nc1cc2ncnc(NCc3cccc([N+](=O)[O-])c3)c2cn1 [Example 44, 7-Amino-4-(3-nitrobenzylamino)pyrido[4,3-d]pyrimidine]	
2870		COc1cccc(CNc2ncnc3cc(N)ncc23)c1 [Example 45, 7-Amino-4-(3-methoxybenzylamino)pyrido[4,3-d]pyrimidine]	
1420		Nc1cc2ncnc(NCc3ccc(Cl)cc3)c2cn1 [Example 46, 7-Amino-4-(4-chlorobenzylamino)pyrido[4,3-d]pyrimidine Mesylate]	
1670		Nc1cc2ncnc(NCc3ccccc3Br)c2cn1 [Example 47, 7-Amino-4-(2-bromobenzylamino)pyrido[4,3-d]pyrimidine]	
1000		Nc1cc2ncnc(NCc3cccc(Br)c3)c2cn1 [Example 48, 7-Amino-4-(3-bromobenzylamino)pyrido[4,3-d]pyrimidine]	
2500		Nc1cc2ncnc(NCc3ccc(Br)cc3)c2cn1 [Example 49, 7-Amino-4-(4-bromobenzylamino)pyrido[4,3-d]pyrimidine]	
10000		Nc1cc2ncnc(NCc3ccccc3C(F)(F)F)c2cn1 [Example 50, 7-Amino-4-(2-trifluoromethylbenzylamino)pyrido[4,3-d]pyrimidine]	
1950		Nc1cc2ncnc(NCc3cccc(C(F)(F)F)c3)c2cn1 [Example 51, 7-Amino-4-(3-trifluoromethylbenzylamino)pyrido[4,3-d]pyrimidine]	
8000		Nc1cc2ncnc(NCc3ccc(C(F)(F)F)cc3)c2cn1 [Example 52, 7-Amino-4-(4-trifluoromethylbenzylamino)pyrido[4,3-d]pyrimidine]	
1800		Nc1cc2ncnc(NCc3cccs3)c2cn1 [Example 53, 7-Amino-4-(thien-2-ylmethylamino)[4,3-d]pyrimidine Dimesylate]	
	100	CC(=O)Nc1cc2ncnc(NCc3ccccc3)c2cn1 [Example 54, 7-Acetylamino-4-benzylaminozpyrido[4,3-d]pyrimidine]	
	400	c1ccc(Nc2ncnc3cnccc23)cc1 [Example 55, 4-Anilinopyrido[3,4-d]pyrimidine]	
	110	Brc1cccc(Nc2ncnc3cnccc23)c1 [Example 56, 4-(3-Bromoanilino)pyrido[3,4-d]pyrimidine]	
	124	Fc1cc2c(Nc3cccc(Br)c3)ncnc2cn1 [Example 57, 4-(3-Bromoanilino)-6-fluoropyrido[3,4-d]pyrimidine]	
	40	Clc1cc2c(Nc3cccc(Br)c3)ncnc2cn1 [Example 58, 4-(3-Bromoanilino)-6-chloropyrido[3,4-d]pyrimidine]	
6100		c1ccc(CNc2ncnc3cnccc23)cc1 [Example 62, 4-(Benzylamino)pyrido[3,4-d]pyrimidine]	
6100		Brc1cccc(Nc2ncnc3ncccc23)c1 [Example 63, 4-(3-Bromoanilino)pyrido[2,3-d]pyrimidine]	
	11	Fc1ccc2c(Nc3cccc(Br)c3)ncnc2n1 [Example 64, 4-(3-Bromoanilino)-7-fluoropyrido[2,3-d]pyrimidine]	
6100		CN(C)c1ccc2c(Nc3cccc(Br)c3)ncnc2n1 [Example 67, 4-(3-Bromoanilino)-7-dimethylaminopyrido[2,3-d]pyrimidine]	
